# Measured values as given in patent publication US20250295143A1, “USE OF ALPHA LIPOIC ACID AS A FEED ADDITIVE FOR AQUATIC ANIMALS” (DSM IP ASSETS B.V., priority 2018, published 2025).
# Experiments:
# [1] = Feed conversion ratio (FCR) in rainbow trout; format: in vivo; conditions: for (Cumulative) Feed conversion ratio (FCR), Feed as fed basis (kg)/weight gain (kg), Mean: rainbow trout
# Protocol: This study evaluated dietary alpha-lipoic acid at 3 doses 250, 500 and 1000 mg/kg compared to control basal diet fed fish for feed conversion ratio. Rainbow trout with an initial weight around 50 g were fed for ˜6 weeks with graded levels of LA compared to basal control diet fed fish in 4 replicate tanks per diet with 50 fish per tank. The fish were fed automatically and daily with an excess of experimental diets with regard to feeding instructions for control basal diet and weighted every two weeks. Excess feed was removed daily.
# [2] = tested on: Noda Virus (VNN); experiment: Mortality in Sea Bass fry following VNN (Noda virus) challenge by cohabitation; format: in vivo
# Protocol: The seventh study evaluated dietary alpha-lipoic acid (LA) at 250, 500 and 750 mg/kg compared to control basal diet fed fish in Sea Bass fry. Pre-feeding experimental diets for 5-6 weeks, growing from ˜0.7 g to ˜1.4 g. Water temperature at 25° C. 133 fish per diet (tank). Disease challenge by cohabitation with fish infected with Noda Virus (VNN). This was intended to transmit the infection to the test groups. Mortality was recorded daily.
# [3] = tested on: phagocytes; experiment: Oxidative burst of phagocytes from rainbow trout fed LA; format: cell-based; conditions: rainbow trout fed 125, 250 and 500 mg/kg for 4 weeks; any treatment group vs control
# Protocol: (§1) Rainbow trout were fed for 4 weeks with graded levels of LA (125, 250 and 500 mg/kg) compared to basal control diet fed fish. A range of functional immune assays of tissues/cells obtained at the end of the feeding period were conducted to investigate the possible mode of action observed in the disease challenge studies.
# The capacity of Oxidative burst of phagocytes was assayed to assess anti-oxidation or pro-oxidation activity, as widely reported for use of LA (Kutter et al., 2014).
# [4] = tested on: white spot syndrome virus (WSSV); experiment: Mortality in shrimp following WSSV challenge; format: in vivo
# Protocol: The fourth study evaluated dietary alpha-lipoic acid at 650 mg/kg compared to control basal diet fed shrimp for resistance to white spot syndrome virus disease (WSSV). The experiment was carried out under standard conditions for shrimp. Pre-feeding experimental diets for ˜4 weeks. Mortality was recorded daily.
# [5] = tested on: Salmon Alfa Virus (SAV); experiment: Mortality in Atlantic salmon fry following SAV challenge by cohabitation (Pancreas Disease); format: in vivo; conditions: for survival compared to control diet fed fish / Relative Percent Survival (RPS): Study 2, SAV challenge; for end mortality compared to control: Study 3, all three SAV challenge trials
# Protocol: (§2) The first study evaluated dietary alpha-lipoic acid (LA) at 500 mg/kg compared to control basal diet fed fish. Pre-feeding experimental diets for ˜5 weeks, growing from ˜0.2 g to ˜0.5 g in 4 replicate tanks per diet. Water temperature at 12° C.±1° C. Min. 30 fish per diet (tank). Disease challenge by cohabitation with fish infected with Salmon Alfa Virus (SAV).
# (§3) This was intended to transmit the infection to the test groups leading to clinical Pancreas Disease (PD). The challenge lasted for 9.5 weeks (˜2 g), mortality recorded daily.
# The second study evaluated dietary alpha-lipoic acid at 3 doses 125, 250 and 500 mg/kg compared to control basal diet fed fish for resistance to virus disease (PD). The experiment was carried out as described for the first study.
# In this study three separate virus challenge trials evaluated dietary alpha-lipoic acid at 3 doses 250, 500 and 1000 mg/kg compared to control basal diet fed fish for resistance to virus disease (PD). The experiment was carried out as described for the first study.
# [6] = tested on: lymphocytes; experiment: Apoptosis of lymphocytes from rainbow trout fed LA; format: cell-based
# Protocol: as §1
# The apoptosis pathway (programmed cell death) was investigated by assaying the ability of lymphocytes to prevent apoptosis occurring following incubation with Campto, a chemical stimulator of apoptosis. […] This level of reduction in apoptosis is quite remarkable.
# [7] = tested on: IPN; experiment: Performance (growth reduction) of Atlantic salmon following IPN challenge; format: in vivo
# Protocol: This study evaluated dietary alpha-lipoic acid at 3 doses 500, 750 and 1000 mg/kg compared to control basal diet fed fish for performance after disease (IPN) challenge in atlantic salmon and was carried out in succession of the fifth study by weighting the fish and comparing the challenged LA and control fed fish with the unchallenged control fed fish.
# [8] = tested on: IPN; experiment: Mortality in Atlantic salmon following IPN challenge; format: in vivo; conditions: A. salmon
# Protocol: as §2, §3
# The fourth study evaluated dietary alpha-lipoic acid at 3 doses 500, 750 and 1000 mg/kg compared to control basal diet fed fish for resistance to virus disease (IPN). The experiment was carried out as described for the first study.
structure (smiles),measurement,setting,value
O=C(O)CCCCC1CCSS1 (stereo not drawn) [alpha-lipoic acid],"(Cumulative) Feed conversion ratio (FCR), Feed as fed basis (kg)/weight gain (kg), Mean","[1]; AL 250, period 0-15 days",0.65
same,"(Cumulative) Feed conversion ratio (FCR), Feed as fed basis (kg)/weight gain (kg), Mean","[1]; AL 250, period 0-30 days",0.67
same,"(Cumulative) Feed conversion ratio (FCR), Feed as fed basis (kg)/weight gain (kg), Mean","[1]; AL 250, period 0-44 days",0.67
same,"(Cumulative) Feed conversion ratio (FCR), Feed as fed basis (kg)/weight gain (kg), Mean","[1]; AL 500, period 0-15 days",0.66
same,"(Cumulative) Feed conversion ratio (FCR), Feed as fed basis (kg)/weight gain (kg), Mean","[1]; AL 500, period 0-30 days",0.67
same,"(Cumulative) Feed conversion ratio (FCR), Feed as fed basis (kg)/weight gain (kg), Mean","[1]; AL 500, period 0-44 days",0.68
same,"(Cumulative) Feed conversion ratio (FCR), Feed as fed basis (kg)/weight gain (kg), Mean","[1]; AL 1000, period 0-15 days",0.65
same,"(Cumulative) Feed conversion ratio (FCR), Feed as fed basis (kg)/weight gain (kg), Mean","[1]; AL 1000, period 0-30 days",0.67
same,"(Cumulative) Feed conversion ratio (FCR), Feed as fed basis (kg)/weight gain (kg), Mean","[1]; AL 1000, period 0-44 days",0.68
same,feed conversion ratios compared to control diet fed fish,"[1]; rainbow trout fed 250, 500 and 1000 mg/kg for ~6 weeks",improved
same,Mean Survival,[2]; 250 ppm in diet,84.2%
same,Mean mortality,[2]; 250 ppm in diet,15.8%
same,RPS,[2]; 250 ppm in diet vs control,59.6%
same,RPS,"[2]; 250 ppm in diet vs control, listed as lipoic acid",60%
same,Mean Survival,[2]; 500 ppm in diet,86.7%
same,Mean mortality,[2]; 500 ppm in diet,13.3%
same,RPS,[2]; 500 ppm in diet vs control,66.0%
same,RPS,"[2]; 500 ppm in diet vs control, listed as lipoic acid",66%
same,Mean Survival,[2]; 750 ppm in diet,78.3%
same,Mean mortality,[2]; 750 ppm in diet,21.7%
same,RPS,[2]; 750 ppm in diet vs control,44.7%
same,RPS,"[2]; 750 ppm in diet vs control, listed as lipoic acid",45%
same,extracellular or intracellular oxidative burst of phagocytes,[3],no significant difference
same,Mean Survival,[4]; 650 ppm in diet,30.0%
same,Mean mortality,[4]; 650 ppm in diet,70.0%
same,RPS,[4]; 650 ppm in diet vs control,8.7%
same,relative percent survival (RPS) compared to control diet,"[5]; Study 1, 500 mg/kg feed, A. salmon fry, SAV challenge 9.5 weeks",63%
same,survival compared to control diet fed fish,[5]; 125 mg/kg,no observed effect
same,survival compared to control diet fed fish,[5]; 250 mg/kg,tendency for improved survival but this was not statistically significant
same,Relative Percent Survival (RPS),"[5]; 125 ppm in diet vs control, A. salmon fry",−17%
same,Relative Percent Survival (RPS),"[5]; 250 ppm in diet vs control, A. salmon fry",8%
same,Relative Percent Survival (RPS),"[5]; 500 ppm in diet vs control, A. salmon fry",34%
same,Relative Percent Survival (RPS),"[5]; 500 ppm in diet vs control, A. salmon fry, listed as LA",34%
same,end mortality compared to control,[5]; high dose 1000 mg/kg,significantly reduced
same,end mortality compared to control,[5]; medium dose 500 mg/kg,significantly reduced
same,basal apoptosis activity of lymphocytes,"[6]; no Campto used, LA treatment groups, not significant",trend for lower basal apoptosis activity
same,apoptotic cells (lymphocytes) after incubation with Campto,[6]; rainbow trout fed 500 mg/kg for 4 weeks,significant reduction
same,reduction of apoptotic cells (lymphocytes) after incubation with Campto,"[6]; rainbow trout fed graded levels 125, 250 and 500 mg/kg for 4 weeks",clear dose response
same,performance compared to challenged control diet fed fish,[7]; 500 mg/kg,performed better
same,performance compared to challenged control diet fed fish,[7]; 750 mg/kg,significantly better performance
same,performance compared to challenged control diet fed fish,[7]; 1000 mg/kg,did not perform significantly better
same,RPS,[8]; 500 ppm in diet vs control,7.1%
same,RPS,"[8]; 500 ppm in diet vs control, listed as LA",7%
same,Mean Survival,[8]; 500 ppm in diet,62.0%
same,Mean mortality,[8]; 500 ppm in diet,38.0%
same,RPS,[8]; 750 ppm in diet vs control,27.6%
same,RPS,"[8]; 750 ppm in diet vs control, listed as LA",28%
same,Mean Survival,[8]; 750 ppm in diet,70.4%
same,Mean mortality,[8]; 750 ppm in diet,29.6%
same,RPS,[8]; 1000 ppm in diet vs control,−1.0%
same,RPS,"[8]; 1000 ppm in diet vs control, listed as LA",−1%
same,Mean Survival,[8]; 1000 ppm in diet,58.7%
same,Mean mortality,[8]; 1000 ppm in diet,41.3%
